Series [1] has as its system M. para. isolated from resected tissue of CD patients. Put plainly: in vitro test of seven antituberculosis drugs against M. para. (Bactec system). The class given is cell-based, Mycobacterium paratuberculosis. More on the design: key to Status: R, resistant; S, sensitive. The note with it: for IC99.9: 99.9% M. para. cells inhibited or killed, Bactec system, combinations given as drug:drug, read-out: MIC99.9; for Status: M. para. resistant or sensitive to the drug.

For series [2], the system named is Crohn's disease. The series is described as follows: comparison of age-matched MAP-positive and MAP-negative patients at 1 year (CDAI). In kind it is in vivo, human. The note with it: patients unresponsive to antibiotics, MAP-negative group. From the text:
Another study was undertaken to compare age-matched MAP-positive and -negative patients utilizing ELISA analysis for serum antibodies to MAP. 10 MAP-positive and 10 MAP-negative patients were compared at 1 year, utilizing the CDAI score as a primary endpoint. The elimination of corticosteroids and the need for immunotherapy were considered secondary endpoints. The MAP-positive patients achieved complete remission in 9 out of the 10 cases, with entry CDAI score of 285 and exit score of 111. Steroids were eliminated in 8 of 10 patients, with 2 patients requiring low-dose steroids. In the MAP-negative group at 1 year, 6 of 10 patients were in complete remission, with an entry CDAI score of 308 and an exit score of 179. Of the responsive patients, 3 of 6 required additional immunotherapy, and 3 remained on antibiotics alone.

For series [3], the system named is Crohn's disease. The conditions noted are these: cited from earlier work.

Bounds are passed on as bounds.

In the case of `CC[C@H]1OC(=O)[C@H](C)[C@@H](O[C@H]2C[C@@](C)(OC)[C@@H](O)[C@H](C)O2)[C@H](C)[C@@H](O[C@@H]2O[C@H](C)C[C@H](N(C)C)[C@H]2O)[C@](C)(OC)C[C@@H](C)C(=O)[C@H](C)[C@@H](O)[C@]1(C)O` [CLR, clarithromycin], in series [1], the IC99.9 was below 1.25 µg/mL and the Status entry is on record as “S”.

Take `CC[C@@H](CO)NCCN[C@@H](CC)CO` [EMB, ethambutol]: in series [1], the IC99.9 is below 3 µg/mL and the Status result is given as “S”.

Take `NNC(=O)c1ccncc1` [INH, isoniazid]: in series [1], the IC99.9 was above 20 µg/mL and the Status entry was “R”.

Consider `NC[C@H]1O[C@H](O[C@H]2[C@H](O)[C@@H](O[C@H]3O[C@H](CO)[C@@H](O)[C@H](N)[C@H]3O)[C@H](N)C[C@@H]2N)[C@H](O)[C@@H](O)[C@@H]1O` [KM, kanamycin], for which, in series [1], the IC99.9 is below 3 µg/mL and the Status result is “R”.

As for `NC(=O)c1cnccn1` [PZA, pyrazinamide], in series [1], the IC99.9 is above 20 µg/mL and the Status result is recorded as “R”.

As to `CO[C@H]1/C=C/O[C@@]2(C)Oc3c(C)c(O)c4c(O)c(c(/C=N/N5CCN(C)CC5)c(O)c4c3C2=O)NC(=O)/C(C)=C\C=C\[C@H](C)[C@H](O)[C@@H](C)[C@@H](O)[C@@H](C)[C@H](OC(C)=O)[C@@H]1C` [RIF, Rifampicin], in series [1], the IC99.9 is above 2.6 µg/mL and the Status entry is on record as “R”.

In the case of `[H]/N=C(/N)N[C@H]1[C@H](O)[C@@H](O)[C@H](O[C@@H]2O[C@@H](C)[C@](O)(C=O)[C@H]2O[C@@H]2O[C@@H](CO)[C@H](O)[C@@H](O)[C@@H]2NC)[C@@H](N/C(N)=N\[H])[C@@H]1O` [ST, streptomycin], in series [1], the IC99.9 is above 3 µg/mL and the Status entry was “R”.

For the compound “infliximab: a monoclonal chimeric antibody to tumor necrosis factor α (TNF-α)”, the induction of remission entry in the series with Crohn's disease [2] is reported as “induction of remission in all patients”. Further, the “benefit of every 8-week administration” value with Crohn's disease [3] (over 550 patients with CD, preliminary trial results) was “maintenance of remission and improved quality of life”. Further, in the series with Crohn's disease [3] (patients treated for CD and rheumatoid arthritis), the “complications of the immunosuppresive effects” value is given as “Documented cases of miliary tuberculosis”.

The values above are taken from patent publication US20030228642A1, “Crohn's disease treatment and efficacy prediction methods” (priority 2002, published 2003).
